Results on eight molecules are retold here after patent US20260021119A1, “TETRACYCLINE DERIVATIVES” (ICM (INSTITUT DU CERVEAU ET DE LA MOELLE ÉPINIÈRE), priority 2022, published 2026).

Data set [1] has as its system Gram+ and Gram- bacteria (S. aureus, E. coli, E. faecalis, P. aeruginosa). Kind of data set: Antibiotic activity, summary over the bacterial strains (Examples 3 and 7). It is filed as cell-based. On the set-up: key to Antibiotic activity: low: Weak antibiotic activity on only 1 of the 3 bacterial strains (i.e. S aureus); high: Strong antibiotic activity on all 3 bacterial strains; Significant antibiotic activity on two bacterial strains. The note with it: summary over bacterial strains. The protocol: (§1) Bacterial strains used in this study were: S. aureus (ATCC25923), E. coli (ATCC25922), E. faecalis (ATCC29212) and P. aeruginosa (PA01). Strains were maintained at −80° C. in 15% (v/v) glycerol for cryoprotection. Bacteria were routinely grown in Mueller-Hinton (MH) broth at 37° C.
(§2) The susceptibility of bacterial strains to antibiotics and compounds was determined in microplates using the standard broth dilution method in accordance with the recommendations of the Comité de 1′Antibiogramme de la Société Française de Microbiologie (CA-SFM). (Members of the SFM Antibiogram Committee, R. Int. J. Antimicrob. Agents 2003, 21, 364). Briefly, the Minimal Inhibitory Concentrations (MICs) were determined with an inoculum of 10^5 CFU in 200 μL of MH broth containing two-fold serial dilutions of each drug. […] To determine all MICs, the measurements were independently repeated in triplicate.
(§3) The compound of formula (Ia) according to the invention was tested against clinical isolates Gram-bacteria (P. aeruginosa, E. coli) and Gram+ bacteria (S. aureus, E. faecalis). Minimum inhibitory concentrations (MIC) were tentatively determined and compared to known antibiotic tetracyclines (doxycycline, demeclocycline, chlortetracycline) and to the compound of formula (B) disclosed in Example 1 of the present application. The test was reproduced twice and the average MIC were calculated.
(§4) The properties of tetracycline derivatives, including the compound of formula (Ia) according to the present invention, were compared regarding the neuroprotection, anti-inflammatory effects, anti-aggregant activity, and antibiotic activity. The properties were evaluated as described herein above.
(§5) EC50s, IC50s determined graphically, *Rescue of dopamine neurons from spontaneous oxidative stress; ** TNF α release inhibition under LPS exposure, ^#Weak antibiotic activity on only 1 of the 3 bacterial strains (i.e. S aureus). ##Strong antibiotic activity on all 3 bacterial strains. ^###Significant antibiotic activity on two bacterial strains.

The subject of the next data set is P. aeruginosa PA01. Briefly: MIC, broth dilution (Example 3). The format is cell-based. The following applies: Pseudomonas aeruginosa, 18 h at 37° C., MH broth. The protocol:
as §1, §2, §3

The next data set relates to S. aureus ATCC 25923. Briefly: MIC, broth dilution (Example 3). The following applies: Staphylococcus aureus, ATCC25923; 18 h at 37° C., MH broth. It is filed as cell-based. On the procedure:
as §1, §2, §3

Another data set concerns E. coli ATCC 25922. Briefly: MIC, broth dilution (Example 3). It is filed as cell-based. The note with it: Escherichia coli, ATCC25922; 18 h at 37° C., MH broth. On the procedure: as §1, §2, §3
The target in the next data set is alpha-synuclein (Homo sapiens, UniProt P37840). Briefly: alpha-synuclein aggregation, thioflavin T (ThT) fluorescence. It is filed as biochemical. The note with it: 20 μM. On the procedure:
The antiaggregant effect of the compound of formula (Ia) according to the present invention on alpha-synuclein (αS) was evaluated in vitro by measuring the fluorescence intensity of the probe thioflavin T (ThT), a molecule that specifically binds to cross-β structures characteristic of amyloid-like aggregation. The compound of formula (Ia) was dissolved in dimethylsulfoxide to reach a concentration of […]. In this assay, 70 μM of alpha-synuclein was incubated with and without 10 μM, 20 μM and 50 μM of the compound of formula (Ia), under orbital agitation (600 rpm), at 37° C., for 5 days. After the incubation time, Tht was added to each sample and changes in the emission fluorescence spectra (λex=450 and λem=[…]) was monitored using a Horiba Fluoromax CP4 spectrofluorometer.

Data set [2] deals with microglia cells (TNF α release under LPS). Kind of data set: Anti-inflammatory effect in microglia, TNF α release inhibition under LPS exposure. The format is cell-based. The following applies: TNF α release inhibition under LPS exposure, determined graphically; for IC50: Microglia, read-out: Anti inflammatory effects (IC 50 in μM). On the procedure:
Microglia is in charge of the protection of the neurons. However, under stress conditions, microglia cells are responsible of inflammatory phenomena, leading eventually to the death of the neurons. The anti-inflammatory effects of 5 μM and 20 μM of compound of formula (B) presented in Example 1, of 5 μM and 20 μM of compound of formula (Ia) according to the present invention and of 50 μM of doxycycline (DOX) were evaluated, compared to the effect of 2.5 μM of dexamethasone (DEX). Microglia is in charge of the protection of the neurons. However, under stress conditions, microglia cells are responsible of inflammatory phenomena, leading eventually to the death of the neurons. The anti-inflammatory effects of 10 μM and 20 μM of compound of formula (C) (“10 μM (C)” and “20 μM (C)”) and of 10 μM and 20 μM of compound of formula (Ia) according to the present invention (“10 μM (Ia)” and “20 μM (Ia)”) were evaluated, compared to the effect of 2.5 μM of dexamethasone (“DEX”). The properties of tetracycline derivatives, including the compound of formula (Ia) according to the present invention, were compared regarding the neuroprotection, anti-inflammatory effects, anti-aggregant activity, and antibiotic activity. The properties were evaluated as described herein above. EC50s, IC50s determined graphically, *Rescue of dopamine neurons from spontaneous oxidative stress; ** TNF α release inhibition under LPS exposure, ^#Weak antibiotic activity on only 1 of the 3 bacterial strains (i.e. S aureus). ##Strong antibiotic activity on all 3 bacterial strains. ^###Significant antibiotic activity on two bacterial strains.

Data set [3] has as its system dopaminergic neurons (TH+ neurons). Briefly: Neuroprotection: rescue of dopamine neurons from spontaneous oxidative stress in primary cultures. It is filed as cell-based. The note with it: for EC50: Neuron, read-out: Neuroprotection (EC 50 μM). On the procedure:
In primary cultures of dopaminergic neurons, TH+ neurons suffer from oxidative stress, leading to the death of the neurons after a few days. When cultured in the presence of a positive reference (apotransferrin), the dopaminergic neurons survive. The neuroprotective effects of 10 μM of doxycycline (DOX) and of 3 μM or 5 μM of the compound of formula (Ia) according to the present invention were evaluated, compared to the effect of 100 μg/mL of apotransferrin (APO).
as §4, §5

The nature of data set [4]: Brain penetration after single subcutaneous injection. It is filed as in vivo. The following applies: mouse, brain and serum, sc; 40 mg/kg single subcutaneous injection, Swiss mice, 30 min to 24 h, n=3; read-out: brain-to-plasma ratio calculated from the area under the concentration time curves. On the procedure:
Adult Swiss mice received a single subcutaneous injection of 40 mg/kg of the compound of formula (Ia) according to the present invention, the compound of formula (C), or doxycycline diluted in saline with 5% DMSO and 5% Tween 80 (doxycycline was used as a reference tetracycline). The mice were sacrificed 30 min, 1 h, 8 h, and 24 h after treatment. After sacrifice, brain and serum samples were collected and processed at each time point for tetracycline dosage, using an UHPLC system coupled with a triple quadrupole mass spectrometer LCMS-8030 (Shimadzu Corporation, Kyoto, Japan).

In another data set the test system is E. faecalis ATCC 29212. Briefly: MIC, broth dilution (Example 3). The format is cell-based. The note with it: Enterococcus faecalis, ATCC29212; 18 h at 37° C., MH broth. On the procedure: as §1, §2, §3
A further data set deals with dopamine neurons. Briefly: Neuroprotection in midbrain mouse cultures, survival of TH+ dopamine neurons. It is filed as cell-based. The following applies: 10 μM, div14. On the procedure: (§6) Midbrain mouse cultures were subjected to a maturation step until day in vitro (div) 7, and then gradually exposed to phenol red formulated DMEM/Nutrient mixture F12 Ham supplemented with 20 μg/mL of insulin and 2 μM of the NMDA receptor blocker MK-801. Under these conditions, which favor low-level, sustained oxidative insults, and lead ultimately to dopamine cell death, treatments with the compound of formula (Ib) according to the invention (at a concentration ranging from 0.1 to 5 μM) were performed or not, as well as treatments with the reference tetracycline antibiotic doxycycline (DOX; 10 μM) and the glycoprotein apotransferrin (APO; 100 μg/mL), the latter being used as reference neuroprotectant. At div14, cultures were fixed, and then processed for tyrosine hydroxylase (TH) immunocytochemistry to estimate the survival of dopamine neurons.
as §6, with “(Ic)” for “(Ib)”, “with” for “with the reference tetracycline antibiotic doxycycline (DOX; 10 μM) and”

Where [5] appears, read: rescue of dopamine neurons from spontaneous oxidative stress, determined graphically.

≈ marks a conversion by molar mass, not a printed value. Read-outs that look alike come from different tables or passages of the source.

Consider `C[C@H]1c2cccc(O)c2C(=O)C2=C(O)[C@]3(O)C(=O)C(C(N)=O)=C(O)C[C@@H]3[C@@H](O)[C@@H]21` [Compound of formula (B)], for which, in data set [1], the Antibiotic activity result is “low”. For the same molecule, the MIC in the data set on P. aeruginosa PA01 was > 2000 µM; against S. aureus ATCC 25923 it was 25 µM; in the data set with E. coli ATCC 25922 it was 200 µM. For the same molecule, the “Anti aggregant activity at 20 μM” value on alpha-synuclein is reported as “yes”. Moreover, the “Anti inflammatory effects (IC 50 in μM)” value in data set [2] is listed as “no”. The “Neuroprotection (EC 50 μM)” value in data set [3] (setting [5]) is on record as “no”.

In the case of `C[C@H]1c2cccc(O)c2C(=O)C2=C(O)[C@]3(O)C(=O)C(C(N)=O)=C(O)[C@@H](N(C)C)[C@@H]3[C@@H](O)[C@@H]21` [Doxycycline], the Kp in data set [4] was 0.11 ± 0.03. Moreover, the Antibiotic activity result in data set [1] is reported as “high”. In addition, the minimum inhibitory concentration (MIC) in the data set with P. aeruginosa PA01 amounted to 64 µM (≈ 28.4 µg/mL); with S. aureus ATCC 25923 it was 0.4 µM (≈ 0.178 µg/mL); in the data set on E. faecalis ATCC 29212, 0.4 µM (≈ 0.178 µg/mL); against E. coli ATCC 25922 it was 3.12 µM (≈ 1.39 µg/mL). Also, the “neuroprotective effect (survival of dopamine neurons)” value with dopamine neurons is “shows a neuroprotective effect”. In addition, the “Anti aggregant activity at 20 μM” value at alpha-synuclein was “yes”. In addition, the IC50 in data set [2] amounted to 45 µM. The neuroprotective effect result in [3] (10 μM, compared to apotransferrin 100 μg/mL) is on record as “shows a neuroprotective effect”. Besides, the EC50 in [3] (setting [5]) stood at 5.2 µM.

For the molecule `CC1c2ccc(-c3ccccc3)c(O)c2C(=O)C2=C(O)C3(O)C(=O)C(C(N)=O)=C(O)CC3[C@@H](O)C21` (stereo partly shown) [Compound of formula (G)], the Antibiotic activity entry in data set [1] was “low”. Moreover, the “Anti aggregant activity at 20 μM” value at alpha-synuclein is on record as “yes”. In addition, the IC50 in [2] was found to be 8 µM. The “Neuroprotection (EC 50 μM)” value in data set [3] (setting [5]) is recorded as “no”.

With `CC1(O)c2c(Cl)ccc(O)c2C(=O)C2=C(O)C3C(=O)C(C(N)=O)=C(O)CC3CC21` (stereo not shown) [Compound of formula (E)], in data set [1], the Antibiotic activity result is “low”. Besides, the “Anti aggregant activity at 20 μM” value at alpha-synuclein is given as “yes”. The “Anti inflammatory effects (IC 50 in μM)” value in [2] was “no”. In addition, in [3], the EC50 was 2.01 µM.

With `NC(=O)C1=C(O)C[C@@H]2C[C@@H]3Cc4cccc(O)c4C(=O)C3=C(O)[C@]2(O)C1=O` [Compound of formula (F), incyclinide], in data set [1], the Antibiotic activity entry is listed as “Significant^###”. For the same molecule, on alpha-synuclein, the “Anti aggregant activity at 20 μM” value is “yes”. The IC50 in data set [2] came out at 8 µM. Besides, in data set [3] (setting [5]), the “Neuroprotection (EC 50 μM)” value is reported as “no”.

Turning to `CN(C)[C@@H]1C(O)=C(C(N)=O)C(=O)[C@@]2(O)C(O)=C3C(=O)c4c(O)ccc(Cl)c4[C@@H](O)C3CC12` (stereo partly shown) [Compound of formula (D)], the Antibiotic activity result in data set [1] is recorded as “high^##”. Also, at alpha-synuclein, the “Anti aggregant activity at 20 μM” value was “yes”. Also, in data set [2], the “Anti inflammatory effects (IC 50 in μM)” value is on record as “no”. Besides, the EC50 in [3] (setting [5]) worked out at 1.84 µM.

Take `CN(C)[C@@H]1C(O)=C(C(N)=O)C(=O)[C@@]2(O)C(O)=C3C(=O)c4c(O)ccc(Cl)c4[C@@H](O)[C@H]3C[C@@H]12` [Demeclocycline]: the MIC stood at 32 µM (≈ 14.9 µg/mL) against P. aeruginosa PA01, 0.4 µM (≈ 0.186 µg/mL) against S. aureus ATCC 25923, 0.4 µM (≈ 0.186 µg/mL) against E. faecalis ATCC 29212 and 3.12 µM (≈ 1.45 µg/mL) with E. coli ATCC 25922.

Take `CN(C)[C@@H]1C(O)=C(C(N)=O)C(=O)[C@@]2(O)C(O)=C3C(=O)c4c(O)ccc(Cl)c4[C@@](C)(O)[C@H]3C[C@@H]12` [Chlortetracycline]: the Antibiotic activity entry in [1] is recorded as “high”. Moreover, the MIC in the data set on P. aeruginosa PA01 was 32 µM (≈ 15.3 µg/mL); against S. aureus ATCC 25923, 1.6 µM (≈ 0.766 µg/mL); with E. faecalis ATCC 29212, 1.6 µM (≈ 0.766 µg/mL); in the data set with E. coli ATCC 25922, 6.25 µM (≈ 2.99 µg/mL). Besides, the “Anti aggregant activity at 20 μM” value at alpha-synuclein is reported as “yes”. Further, in [2], the IC50 came to 1 µM. Also, the “Neuroprotection (EC 50 μM)” value in data set [3] (setting [5]) is given as “no”.
